Measurements published in patent publication US10732108B2, “Fluorogenic water soluble hydrazine sensors” (priority 2017, dated 2020).

Assay: Hydrazine diffusion into vesicles assay (fluorimetric kinetic hydrazine transmembrane diffusion, SUVs encapsulating compound 2)
Details: for hydrazine diffusion across a phospholipid membrane, t ½: FIG. 9, membranes of the phosphatidylcholine lipid
Protocol: (iii) Hydrazine Diffusion into Vesicles Assay
Example 5: Hydrazine Diffusion Assay Procedure
1.0 mg of phosphatidylcholine lipid in chloroform solution was dispensed into a 20 mL scintillation vial, dried under a stream of Ar, and put under house vacuum in a desiccator overnight. The vial was then removed from the desiccator, purged of air with a stream of Ar, closed, and sealed with Parafilm.
6.0 g of monobasic sodium phosphate was dissolved in 1 L MilliQ water to make a 50 mM solution. The pH of the solution was raised to 7.40 by addition of 5N NaOH (typically 9 mL). Depending on the amount of NaOH added, NaCl was added (typically 10 g) to form a 500 mosM buffer.
Loosely capped Falcon tubes containing 45 ml of buffer or MilliQ water were placed in a desiccator and put under house vacuum overnight. The desiccator was then filled with Ar by first capping the inlet with a rubber septum, then piercing the septum with two Ar-filled balloons with attached needles, then simultaneously closing the desiccator valve to vacuum and opening the desiccator valve to the inlet. The desiccator top was then removed and the Falcon tubes quickly closed and sealed with Parafilm.
425-430 mg of hydrazine hydrochloride was weighed and dispensed into a 25 ml reagent bottle pre-filled with Ar; the bottle was then purged of air with a stream of Ar and closed. 25 ml degassed MilliQ water was added to the bottle, along with 300 μl 5N NaOH, under a stream of Ar. The bottle was closed and shaken vigorously. The pH was then adjusted to 7.40±0.02 with 5N NaOH, purging of air with Ar immediately after each pH measurement with a glass electrode. The bottle was purged of air with a stream of Ar, closed, and sealed with Parafilm.
A suspension of Sepharose® CL-4B in 10-30% ethanol (Sigma) was added to an 8.5-cm size-exclusion column. Methanol was washed out of the column by flushing with at least 5 column volumes of 50 mM phosphate buffer (described above, section B). Then the column was capped with a rubber septum, the septum was pierced with an Ar-filled balloon with attached needle, and the column was run until the meniscus descended to the top of the resin. Then, under a stream of Ar, the head space was filled with degassed buffer (described above, section C) and the Falcon tube containing the degassed buffer was purged of any incidental air with a stream of Ar, then closed. […]
The vesicles were loaded onto the column under a stream of Ar and then degassed phosphate buffer was added to the column under a stream of Ar; the column was subsequently run under Ar. […] Vesicles were not visible by eye or upon exposure to a UV lamp; vesicles were detected by directing the beam from a 5 mW green laser pointer horizontally through the cuvette; upon elution of the vesicles, bright scattering was visible.

Structure (SMILES): CCCCCCCC/C=C\CCCCCCCC(=O)OC[C@H](COP(=O)([O-])OCC[N+](C)(C)C)OC(=O)CCCCCCC/C=C\CCCCCCCC [18:1 PC (DOPC)]
- hydrazine diffusion across a phospholipid membrane, t ½: 54.4 ± 5.6 min

Structure (SMILES): CCCCCCCC/C=C\CCCCCCCCCCCC(=O)OC[C@H](COP(=O)([O-])OCC[N+](C)(C)C)OC(=O)CCCCCCCCCCC/C=C\CCCCCCCC [di22:1 PC (DEPC)]
- hydrazine diffusion across a phospholipid membrane, t ½: 98.9 ± 6.0 min
- N2H4 Diff. t1/2 (min) pH = 6.30 (pH = 6.30, SUVs of the lipid): 583 ± 25 min
- N2H4 Diff. t1/2 (min) pH = 7.40 (pH = 7.40, SUVs of the lipid): 98.9 ± 6.0 min
